Results published in PMC10882719 (Frontiers in Neuroscience, 2024).
Where two headings read alike, the source gives them in different places.

Legend:
Format in all cases: cell-based
168 GPCRs [1] = target: T1, 168 GPCRs (Homo sapiens, UniProt P25105); details: PTAFR
T1 construct: host or cells: PathHunter cell lines

168 GPCRs [2] = target: T2, 168 GPCRs (Homo sapiens, UniProt P32241); details: VIPR1
T2 construct: host or cells: PathHunter cell lines
T2 sequence (P32241 31-457): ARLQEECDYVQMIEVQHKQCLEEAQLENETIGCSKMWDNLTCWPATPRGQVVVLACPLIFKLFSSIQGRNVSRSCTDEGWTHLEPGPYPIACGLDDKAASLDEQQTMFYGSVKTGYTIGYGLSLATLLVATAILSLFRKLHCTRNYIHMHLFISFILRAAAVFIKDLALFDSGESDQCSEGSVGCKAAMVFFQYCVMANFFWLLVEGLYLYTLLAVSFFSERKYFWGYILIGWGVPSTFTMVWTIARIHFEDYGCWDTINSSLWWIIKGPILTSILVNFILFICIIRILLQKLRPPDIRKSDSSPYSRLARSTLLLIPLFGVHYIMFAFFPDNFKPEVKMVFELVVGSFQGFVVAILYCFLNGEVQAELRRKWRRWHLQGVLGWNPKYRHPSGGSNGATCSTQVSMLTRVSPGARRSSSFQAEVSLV

168 GPCRs [3] = target: T3, 168 GPCRs (Homo sapiens, UniProt P32247)
T3 construct: host or cells: PathHunter cell lines
T3 sequence (P32247 1-399): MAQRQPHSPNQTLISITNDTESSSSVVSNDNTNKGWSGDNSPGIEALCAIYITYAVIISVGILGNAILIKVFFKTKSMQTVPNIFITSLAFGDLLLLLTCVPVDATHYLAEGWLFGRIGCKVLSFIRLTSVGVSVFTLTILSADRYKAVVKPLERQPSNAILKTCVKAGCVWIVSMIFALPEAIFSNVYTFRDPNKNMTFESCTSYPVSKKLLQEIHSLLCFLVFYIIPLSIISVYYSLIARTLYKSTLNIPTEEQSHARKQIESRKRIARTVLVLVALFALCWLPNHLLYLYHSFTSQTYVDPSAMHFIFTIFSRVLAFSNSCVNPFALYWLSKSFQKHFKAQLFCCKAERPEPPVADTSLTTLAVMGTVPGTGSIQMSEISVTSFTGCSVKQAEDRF

168 GPCRs [4] = target: T4, 168 GPCRs (Homo sapiens, UniProt P50391); details: PPYR1
T4 construct: host or cells: PathHunter cell lines

168 GPCRs [5] = target: T5, 168 GPCRs (Homo sapiens, UniProt P51684)
T5 construct: host or cells: PathHunter cell lines
T5 sequence (P51684 1-374): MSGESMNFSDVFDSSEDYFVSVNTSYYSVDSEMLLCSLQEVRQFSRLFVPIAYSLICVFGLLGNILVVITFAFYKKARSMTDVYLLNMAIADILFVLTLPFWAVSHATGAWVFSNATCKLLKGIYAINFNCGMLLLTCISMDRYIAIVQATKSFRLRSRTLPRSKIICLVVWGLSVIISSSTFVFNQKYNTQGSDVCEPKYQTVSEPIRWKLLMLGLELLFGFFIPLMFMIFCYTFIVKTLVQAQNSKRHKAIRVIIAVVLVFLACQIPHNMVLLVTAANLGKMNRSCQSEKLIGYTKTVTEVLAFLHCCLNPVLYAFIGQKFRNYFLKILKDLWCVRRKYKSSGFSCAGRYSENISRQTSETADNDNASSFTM

168 GPCRs [6] = target: T6, 168 GPCRs (Homo sapiens, UniProt P51685)
T6 construct: host or cells: PathHunter cell lines

168 GPCRs [7] = target: T7, 168 GPCRs (Homo sapiens, UniProt Q03431); details: PTHR1
T7 construct: host or cells: PathHunter cell lines
T7 sequence (Q03431 27-593): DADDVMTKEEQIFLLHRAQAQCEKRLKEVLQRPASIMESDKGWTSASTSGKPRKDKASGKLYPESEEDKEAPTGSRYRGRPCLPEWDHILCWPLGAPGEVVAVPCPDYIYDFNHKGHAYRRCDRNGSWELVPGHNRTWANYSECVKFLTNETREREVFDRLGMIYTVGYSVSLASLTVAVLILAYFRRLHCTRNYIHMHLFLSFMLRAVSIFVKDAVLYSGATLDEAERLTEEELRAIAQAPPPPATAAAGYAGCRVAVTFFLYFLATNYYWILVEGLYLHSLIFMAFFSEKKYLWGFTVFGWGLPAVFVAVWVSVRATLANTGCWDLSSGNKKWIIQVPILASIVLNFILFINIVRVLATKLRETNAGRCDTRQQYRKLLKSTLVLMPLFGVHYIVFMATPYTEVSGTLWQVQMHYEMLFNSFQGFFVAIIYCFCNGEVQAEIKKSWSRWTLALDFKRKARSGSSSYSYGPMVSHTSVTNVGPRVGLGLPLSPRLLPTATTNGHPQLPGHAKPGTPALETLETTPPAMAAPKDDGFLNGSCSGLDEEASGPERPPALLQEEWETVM

T4 sequence (P50391 whole entry): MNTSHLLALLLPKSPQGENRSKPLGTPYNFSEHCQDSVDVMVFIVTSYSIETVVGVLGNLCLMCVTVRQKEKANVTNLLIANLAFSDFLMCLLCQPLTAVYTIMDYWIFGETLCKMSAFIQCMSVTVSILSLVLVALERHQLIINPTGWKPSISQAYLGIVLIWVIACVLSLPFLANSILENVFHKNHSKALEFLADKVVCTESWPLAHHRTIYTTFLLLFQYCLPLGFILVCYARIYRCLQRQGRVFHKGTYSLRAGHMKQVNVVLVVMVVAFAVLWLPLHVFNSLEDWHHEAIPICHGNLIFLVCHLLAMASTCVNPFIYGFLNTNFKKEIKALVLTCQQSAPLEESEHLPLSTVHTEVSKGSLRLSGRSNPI
T6 sequence (P51685 whole entry): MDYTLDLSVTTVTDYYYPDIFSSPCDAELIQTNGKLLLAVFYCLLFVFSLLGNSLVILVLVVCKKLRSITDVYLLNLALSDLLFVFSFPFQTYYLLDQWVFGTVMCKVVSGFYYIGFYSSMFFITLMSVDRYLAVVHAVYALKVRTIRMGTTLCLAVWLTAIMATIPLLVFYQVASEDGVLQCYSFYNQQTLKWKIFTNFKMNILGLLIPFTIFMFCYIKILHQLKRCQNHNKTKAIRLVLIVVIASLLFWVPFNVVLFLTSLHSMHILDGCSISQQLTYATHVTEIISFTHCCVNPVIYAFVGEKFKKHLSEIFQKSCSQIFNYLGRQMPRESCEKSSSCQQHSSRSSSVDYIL
T1 sequence (P25105 whole entry): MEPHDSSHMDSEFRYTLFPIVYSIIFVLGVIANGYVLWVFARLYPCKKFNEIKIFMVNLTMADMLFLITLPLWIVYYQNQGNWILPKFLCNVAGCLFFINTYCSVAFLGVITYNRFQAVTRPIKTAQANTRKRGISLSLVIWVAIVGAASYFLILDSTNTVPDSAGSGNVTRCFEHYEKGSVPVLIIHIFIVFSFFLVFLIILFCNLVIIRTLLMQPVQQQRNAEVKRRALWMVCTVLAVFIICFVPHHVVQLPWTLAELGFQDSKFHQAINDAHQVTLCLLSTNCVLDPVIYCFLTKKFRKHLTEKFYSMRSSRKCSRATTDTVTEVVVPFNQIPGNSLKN

Compound | % Agonist Activity (168 GPCRs [1]; Conc 1 uM) [%] | % Antagonist Activity (168 GPCRs [1]; Conc 1 uM) [%] | % Agonist Activity (168 GPCRs [1]; Conc 10 uM) [%] | % Antagonist Activity (168 GPCRs [1]; Conc 10 uM) [%] | % Agonist Activity (168 GPCRs [2]; Conc 1 uM) [%] | % Antagonist Activity (168 GPCRs [2]; Conc 1 uM) [%] | % Agonist Activity (168 GPCRs [2]; Conc 10 uM) [%] | % Antagonist Activity (168 GPCRs [2]; Conc 10 uM) [%] | % Agonist Activity (168 GPCRs [3]; BRS3, 1 uM) [%] | % Antagonist Activity (168 GPCRs [3]; BRS3, 1 uM) [%] | % Agonist Activity (168 GPCRs [3]; BRS3, 10 uM) [%] | % Antagonist Activity (168 GPCRs [3]; BRS3, 10 uM) [%] | % Agonist Activity (168 GPCRs [4]; Conc 1 uM) [%] | % Antagonist Activity (168 GPCRs [4]; Conc 1 uM) [%] | % Agonist Activity (168 GPCRs [4]; Conc 10 uM) [%] | % Antagonist Activity (168 GPCRs [4]; Conc 10 uM) [%] | % Agonist Activity (168 GPCRs [5]; CCR6, 1 uM) [%] | % Antagonist Activity (168 GPCRs [5]; CCR6, 1 uM) [%] | % Agonist Activity (168 GPCRs [5]; CCR6, 10 uM) [%] | % Antagonist Activity (168 GPCRs [5]; CCR6, 10 uM) [%] | further results
CNC(C)Cc1ccc2c(c1)OCO2 (centres unmarked) [MDMA, 3,4-Methylenedioxy methamphetamine, reference compound] | 0.6 | 11.4 | 0.4 | 12.1 | -0.8 | 5.7 | -0.6 | 5.1 | 2.6 | 7.9 | -3 | 3.8 | 0.3 | 5.9 | 0.9 | 6.9 | 1.4 | 0 | 0.7 | 0.3 | % Agonist Activity (168 GPCRs [6]; CCR8, 1 uM): -0.2%; % Antagonist Activity (168 GPCRs [6]; CCR8, 1 uM): -3.1%; % Agonist Activity (168 GPCRs [6]; CCR8, 10 uM): -0.2%; % Antagonist Activity (168 GPCRs [6]; CCR8, 10 uM): 4.3%; % Agonist Activity (168 GPCRs [7]; Conc 1 uM): 0%; % Antagonist Activity (168 GPCRs [7]; Conc 1 uM): -2.1%; % Agonist Activity (168 GPCRs [7]; Conc 10 uM): 0.1%; % Antagonist Activity (168 GPCRs [7]; Conc 10 uM): 7.7%
CNC(C)C(=O)c1ccc2c(c1)OCO2 (centres unmarked) [methylone] | -1.3 | 2 | -2.6 | -6.7 | 0.3 | -0.7 | 0.6 | 5.3 | 4.5 | 18.3 | -4.6 | 10.1 | -1.7 | 9.5 | -1.2 | 6.5 | -2.9 | 9.3 | -3.3 | -1.6 | % Agonist Activity (168 GPCRs [6]; CCR8, 1 uM): -0.2%; % Antagonist Activity (168 GPCRs [6]; CCR8, 1 uM): 4.7%; % Agonist Activity (168 GPCRs [6]; CCR8, 10 uM): -0.6%; % Antagonist Activity (168 GPCRs [6]; CCR8, 10 uM): -0.3%; % Agonist Activity (168 GPCRs [7]; Conc 1 uM): 0%; % Antagonist Activity (168 GPCRs [7]; Conc 1 uM): 2.2%; % Agonist Activity (168 GPCRs [7]; Conc 10 uM): 0.1%; % Antagonist Activity (168 GPCRs [7]; Conc 10 uM): -8.3%
